Data: US20180110781A1, “SYSTEM AND METHOD FOR DIAGNOSIS AND TREATMENT OF NEUROPSYCHIATRIC DISORDERS” (Research Foundation For Mental Hygiene, Inc., priority 2016, published 2018)
Entries after “also recorded” stand apart in the source; their conditions may differ. Structures can show the parent of a compound that is named as a salt.

Experiments:
[1] = tested on: outpatients with schizophrenia or schizoaffective disorder; experiment: Six-week rater-blind multivitamin-controlled trial of Kuvan: Positive and Negative Symptom Scale (PANSS); assay type: in vivo, human
Method: (§1) A six-week, rater-blind, multivitamin-controlled trial of Kuvan® was performed at the Lieber Schizophrenia Research Clinic, New York State Psychiatric Institute. Clinically stable outpatients with schizophrenia or schizoaffective disorder were randomly assigned to receive Kuvan® (20mg/kg/day) or a single, daily multivitamin tablet, added to their medication regimen. Subjects were also genotyped for the GCH1 gene promotor polymorphism (r510137071). The primary clinical efficacy outcome was change in total Positive and Negative Symptom Scale (PANSS) scores, measured at baseline, then weeks 2, 4 and 6. Improvements in function was measured by the UPSA-B, at baseline, then week 6. The primary cognitive outcome was measured by the MCCB, measured at baseline and week 6. A priori defined secondary outcomes were PANSS factor scores and MCCB domain scores. Data were analyzed using a mixed effects repeated measures model (Stata v14.1, College Station, TX). Models included fixed effects of treatment, time (week) and the treatment by time interaction, with random subject and time effects. Genotype (GCH1 A allele versus GG genotype) was also included as a fixed effect in additional models. […] All hypothesis tests were two-sided, with significance determined at unadjusted p<0.05.

[2] = tested on: outpatients with schizophrenia or schizoaffective disorder; experiment: Six-week trial of Kuvan: MATRICS Consensus Cognitive Battery (MCCB); assay type: in vivo, human
Method: as §1

[3] = tested on: outpatients with schizophrenia or schizoaffective disorder; experiment: Six-week trial of Kuvan: UCSD Performance Based Skills Assessment-Brief (UPSA-B); assay type: in vivo, human
Method: as §1

[4] = tested on: outpatients with schizophrenia or schizoaffective disorder; parameters: species or system human; settings: in vivo
Method: A six-week, rater-blind, multivitamin-controlled trial of Kuvan® was performed at the Lieber Schizophrenia Research Clinic, New York State Psychiatric Institute. Clinically stable outpatients with schizophrenia or schizoaffective disorder were randomly assigned to receive Kuvan® (20mg/kg/day) or a single, daily multivitamin tablet, added to their medication regimen. Subjects were also genotyped for the GCH1 gene promotor polymorphism (r510137071). The primary clinical efficacy outcome was change in total Positive and Negative Symptom Scale (PANSS) scores, measured at baseline, then weeks 2, 4 and 6. Improvements in function was measured by the UPSA-B, at baseline, then week 6. The primary cognitive outcome was measured by the MCCB, measured at baseline and week 6. A priori defined secondary outcomes were PANSS factor scores and MCCB domain scores.
No AEs were considered by the investigators to be serious. 75% (9/12) of subjects randomized to the multivitamin group and 61.5% (8/13) of those treated with Kuvan® experienced an AE, which was not statistically different (p=0.47). There was no statistically significant difference in the average number of AEs experienced by each subject (Kuvan=2.44±1.13; Multivitamin=3.0±2.07, p=0.49), or the degree to which each AEs was considered related to the study medication (Kuvan 18/24 total events; multivitamin 13/22 total events, p=0.35). Additionally, two subjects prematurely discontinued from the study based upon the predefined stopping rules, both of whom had been randomized to the multivitamin group.

[5] = did not reach two-tailed statistical significance

## C[C@H](O)[C@H](O)[C@H]1CNc2nc(N)[nH]c(=O)c2N1 [Kuvan®, saproterin dihydrochloride]
[1]; Kuvan 20mg/kg/day vs daily multivitamin, baseline to week 6, treatment*time p>0.05
  change in total PANSS score, treatment effect: no treatment effect
[1]; Kuvan vs multivitamin, six weeks
  PANSS factor scores (Positive, Negative and General Psychopathology), treatment*time effect: no significant treatment*time effect
[1]; p<0.1 for each visit compared to baseline
  genotype effect (treatment*time*genotype) on total PANSS score: A genotype effect was not observed
[2]; GCH1 A allele patients, study end (week 6), Kuvan n=5 p=0.044, multivitamin n=8 p=0.36 vs baseline
  MCCB composite score, final mean: 34.4±11.89
[2]; GCH1 A allele patients, Kuvan n=5, multivitamin n=8
  MCCB composite score, baseline mean: 28.4±8.62
[2]; GCH1 A allele versus GG, p=0.002, dihydrochloride
  interaction of treatment, time and genotype on the MCCB Composite Score: significant effect of GCH1 genotype by treatment group; also recorded: significant interaction
[2]; baseline to study end, Kuvan 4/5, multivitamin 2/8
  A allele carriers exhibiting improvement on the MCCB composite T score: 80%
[2]; baseline to week 6, p=0.085
  MCCB Social Cognition domain, Kuvan group versus multivitamin group: trend toward significance
[2]; [5]
  MCCB social cognition domain score, change from baseline: increased from baseline
  MCCB working memory domain score, change from baseline: increased from baseline
[2]; n=13 vs n=12 completers, baseline to week 6, p=0.05
  MCCB Working Memory domain, Kuvan group versus multivitamin group: performance improvement
[2]; paired t-test p=0.044
  cognitive change from baseline (MCCB composite) in GCH1 A allele patients: significant cognitive improvement
[2]; primary cognitive outcome, one-tailed trend p=0.0735
  MCCB composite score, treatment*time interaction: did not show a significant treatment*time interaction
[3]; baseline to week 6, p<0.001
  UPSA-B Financial subscale, Kuvan group versus multivitamin group: performance improvement
[3]; p=0.096
  treatment*time*genotype interaction on total UPSA-B score: trend towards significance
[3]; paired sample t-tests, Kuvan p=0.039, multivitamin p=0.025
  unadjusted UPSA-B Financial Subscale scores, change between baseline and study end: significant increase
[3]; primary functional outcome
  UPSA-B score, treatment*time interaction: did not show a significant treatment*time interaction
[4]; human, 6 weeks
  AEs considered related to the study medication: 18/24
  average number of AEs experienced by each subject: 2.44±1.13
  subjects who experienced an adverse event: 61.5%
[4]
  severity of adverse events: generally mild
